Experimental data taken from ChEMBL document CHEMBL4680208, “Sulfone derivatives enter the cytoplasm of Candida albicans sessile cells” (Eur J Med Chem, 2020).
Active and inactive are the calls of the source. The rule behind the calls is not given here.

Assays:
Candida albicans [1] = experiment: Antifungal activity against Candida albicans 90028 assessed as fungal growth inhibition at 0.5 ug/ml measured after 48 hrs by microdilution method relative to control; assay type: functional; conditions: read-out: GI
Candida albicans [2] = experiment: Antifungal activity against Candida albicans 90028 assessed as fungal growth inhibition at 8 ug/ml measured after 18 hrs by microdilution method relative to control; assay type: functional; conditions: read-out: GI
Vero = experiment: Cytotoxicity against African green monkey Vero cells at 0.25 to 512 ug/ml by XTT assay relative to control; assay type: cell-based; conditions: chlorocebus sabaeus, at 0.25 to 512 µg/mL, dose 0.25-512 µg/ml
Candida albicans [3] = experiment: Antifungal activity against Candida albicans 90028 assessed as fungal growth inhibition at 8 ug/ml measured after 48 hrs by microdilution method relative to control; assay type: functional; conditions: read-out: GI
Candida albicans [4] = experiment: Antifungal activity against Candida albicans 90028 assessed as fungal growth inhibition at 0.0625 ug/ml measured after 48 hrs by microdilution method relative to control; assay type: functional; conditions: read-out: GI
Candida albicans [5] = experiment: Antifungal activity against Candida albicans 90028 assessed as fungal growth inhibition at 0.5 ug/ml measured after 18 hrs by microdilution method relative to control; assay type: functional; conditions: read-out: GI
Candida albicans [6] = experiment: Antifungal activity against Candida albicans 90028 assessed as fungal growth inhibition at 4 ug/ml measured after 18 hrs by microdilution method relative to control; assay type: functional; conditions: read-out: GI
Candida albicans [7] = experiment: Antifungal activity against Candida albicans 90028 assessed as fungal growth inhibition at 1 ug/ml measured after 48 hrs by microdilution method relative to control; assay type: functional; conditions: read-out: GI
[8] = Drug uptake in Galleria mellonella larvae assessed as increase in fluorescence in longitudinal larva slides measured after 2 hrs by fluorescence assay; assay type: ADME, tissue-based
Candida albicans [9] = experiment: Antifungal activity against Candida albicans 90028 assessed as fungal growth inhibition at 0.25 ug/ml measured after 18 hrs by microdilution method relative to control; assay type: functional; conditions: read-out: GI
Candida albicans [10] = experiment: Antifungal activity against Candida albicans 90028 assessed as fungal growth inhibition at 0.0313 ug/ml measured after 18 hrs by microdilution method relative to control; assay type: functional; conditions: read-out: GI
Candida albicans [11] = experiment: Antifungal activity against Candida albicans 90028 assessed as fungal growth inhibition at 2 ug/ml measured after 48 hrs by microdilution method relative to control; assay type: functional; conditions: read-out: GI
Candida albicans [12] = experiment: Antifungal activity against Candida albicans 90028 assessed as fungal growth inhibition measured after 48 hrs by microdilution method; assay type: functional
Candida albicans [13] = experiment: Antifungal activity against Candida albicans 90028 assessed as fungal growth inhibition at 0.0625 ug/ml measured after 18 hrs by microdilution method relative to control; assay type: functional; conditions: read-out: GI
[14] = Drug uptake in Galleria mellonella larvae assessed as increase in fluorescence near the proventriculus measured after 2 hrs by fluorescence assay; assay type: ADME
Candida albicans [15] = experiment: Induction of cell demise in Candida albicans infected in human TR146 cells at 16 ug/ml measured after 18 hrs by AO/propidium iodide staining based confocal laser scanning microscopy; assay type: functional, organism-based; conditions: dose 16.0 µg/ml
Candida albicans [16] = experiment: Induction of cell demise in Candida albicans infected in human MRC5 cells at 16 ug/ml measured after 18 hrs by AO/propidium iodide staining based confocal laser scanning microscopy; assay type: functional, organism-based; conditions: dose 16.0 µg/ml
Candida albicans [17] = experiment: Antifungal activity against Candida albicans 90028 assessed as fungal growth inhibition at 0.125 ug/ml measured after 48 hrs by microdilution method relative to control; assay type: functional; conditions: read-out: GI
Candida albicans [18] = experiment: Antifungal activity against Candida albicans 90028 infected in Galleria mellonella larvae at 16 ug/ml by H and E staining based histological analysis; assay type: functional, organism-based; conditions: dose 16.0 µg/ml
Candida albicans [19] = experiment: Induction of plasma membrane permeabilization in Candida albicans infected in human TR146 cells at 16 ug/ml measured after 18 hrs by propidium iodide staining based confocal laser scanning microscopy; assay type: functional, organism-based; conditions: dose 16.0 µg/ml
Candida albicans [20] = experiment: Antifungal activity against Candida albicans 90028 assessed as fungal growth inhibition at 1 ug/ml measured after 18 hrs by microdilution method relative to control; assay type: functional; conditions: read-out: GI
Candida albicans [21] = experiment: Antifungal activity against Candida albicans 90028 assessed as fungal growth inhibition at 0.125 ug/ml measured after 18 hrs by microdilution method relative to control; assay type: functional; conditions: read-out: GI
Candida albicans [22] = experiment: Antifungal activity against Candida albicans 90028 assessed as fungal growth inhibition at 0.0313 ug/ml measured after 48 hrs by microdilution method relative to control; assay type: functional; conditions: read-out: GI
Candida albicans [23] = experiment: Antifungal activity against Candida albicans 90028 assessed as fungal growth inhibition at 16 ug/ml measured after 18 hrs by microdilution method relative to control; assay type: functional; conditions: read-out: GI
[24] = Toxicity in Galleria mellonella larvae assessed as survival at 16 ug/ml relative to control; conditions: at 16 µg/mL
[25] = Cytotoxicity against human MRC5 cells by CellTiter 96 Aqueous One Solution Reagent based assay; assay type: cell-based
Candida albicans [26] = experiment: Antifungal activity against Candida albicans 90028 assessed as fungal growth inhibition at 4 ug/ml measured after 48 hrs by microdilution method relative to control; assay type: functional; conditions: read-out: GI
Candida albicans [27] = experiment: Antifungal activity against Candida albicans 90028 assessed as fungal growth inhibition at 0.25 ug/ml measured after 48 hrs by microdilution method relative to control; assay type: functional; conditions: read-out: GI
Candida albicans [28] = experiment: Induction of plasma membrane permeabilization in Candida albicans infected in human MRC5 cells at 16 ug/ml measured after 18 hrs by propidium iodide staining based confocal laser scanning microscopy; assay type: functional, organism-based; conditions: dose 16.0 µg/ml
Candida albicans [29] = experiment: Fungicidal activity against Candida albicans 90028 preincubated for 48 hrs followed by plating on SD agar and measured after 48 hrs; assay type: functional; conditions: time 96 hrs
Candida albicans [30] = experiment: Antifungal activity against Candida albicans 90028 assessed as fungal growth inhibition at 2 ug/ml measured after 18 hrs by microdilution method relative to control; assay type: functional; conditions: read-out: GI
Candida albicans [31] = experiment: Antifungal activity against Candida albicans 90028 assessed as fungal growth inhibition at 16 ug/ml measured after 48 hrs by microdilution method relative to control; assay type: functional; conditions: read-out: GI
Candida albicans [32] = experiment: Antibiofilm activity against Candida albicans 90028 assessed as increasing in cell killing by XTT assay; assay type: functional
[33] = Drug uptake in Galleria mellonella larvae assessed as increase in fluorescence between cell wall and muscle layer measured after 2 hrs by fluorescence assay; assay type: ADME
[34] = Cytotoxicity against African green monkey Vero cells by XTT assay; assay type: cell-based; conditions: chlorocebus sabaeus
Candida albicans [35] = experiment: Antifungal activity against Candida albicans 90028 infected in Galleria mellonella larvae assessed as increase in larvae survival at MFC measured 96 hrs post-infection relative to control; assay type: functional

| Structure (SMILES) | inhibition of growth at 0.5 µg/mL (Candida albicans [1]) | inhibition of growth at 8 µg/mL (Candida albicans [2]) | inhibition of growth at 8 µg/mL (Candida albicans [3]) | inhibition of growth at 0.0625 µg/mL (Candida albicans [4]) | inhibition of growth at 0.5 µg/mL (Candida albicans [5]) | inhibition of growth at 4 µg/mL (Candida albicans [6]) | inhibition of growth at 1 µg/mL (Candida albicans [7]) | inhibition of growth at 0.25 µg/mL (Candida albicans [9]) | inhibition of growth at 0.0313 µg/mL (Candida albicans [10]) | inhibition of growth at 2 µg/mL (Candida albicans [11]) | inhibition of growth at 0.0625 µg/mL (Candida albicans [13]) | Drug uptake [14] | Activity (Candida albicans [15]) | Activity (Candida albicans [16]) | inhibition of growth at 0.125 µg/mL (Candida albicans [17]) | Activity (Candida albicans [18]) | Activity (Candida albicans [19]) | inhibition of growth at 1 µg/mL (Candida albicans [20]) | inhibition of growth at 0.125 µg/mL (Candida albicans [21]) | inhibition of growth at 0.0313 µg/mL (Candida albicans [22]) | also measured |
| --- | --- | --- | --- | --- | --- | --- | --- | --- | --- | --- | --- | --- | --- | --- | --- | --- | --- | --- | --- | --- | --- |
| O=[N+]([O-])c1cc(S(=O)(=O)C(F)(F)Cl)ccc1N/N=C\c1ccc(C2=C3C=CC=[N+]3[B-](F)(F)n3cccc32)cc1 | 100% | 100% | 100% | 99.8% | 99.8% | 100% | 100% | 100% | 100% | 100% | 100% | Active | Active | Active | 100% | inactive | Active | 100% | 99.8% | 99.8% | Activity (Vero): 100%; Drug uptake [8]: Not Active; MIC (Candida albicans [12]): inactive; inhibition of growth at 16 µg/mL (Candida albicans [23]): 100%; survival [24]: 93%; CC50 [25]: ≥ 16 µg/mL; inhibition of growth at 4 µg/mL (Candida albicans [26]): 100%; inhibition of growth at 0.25 µg/mL (Candida albicans [27]): 99.9%; Activity (Candida albicans [28]): Active; MFC (Candida albicans [29]): ≥ 16 µg/mL; inhibition of growth at 2 µg/mL (Candida albicans [30]): 99.9%; inhibition of growth at 16 µg/mL (Candida albicans [31]): 100% |
| C[C@@H]1[C@H](O)[C@@H](C)/C=C/C=C/C=C/C=C/C=C/C=C/C=C/[C@H](O[C@@H]2O[C@H](C)[C@@H](O)[C@H](N)[C@@H]2O)C[C@@H]2O[C@](O)(C[C@@H](O)C[C@@H](O)[C@H](O)CC[C@@H](O)C[C@@H](O)CC(=O)O[C@H]1C)C[C@H](O)[C@H]2C(=O)O |  |  |  |  |  |  |  |  |  |  |  |  |  |  |  |  |  |  |  |  | Activity (Candida albicans [32]): Active |
| O=[N+]([O-])c1cc(S(=O)(=O)C(Cl)(Cl)Br)ccc1N/N=C\c1ccc(C2=C3C=CC=[N+]3[B-](F)(F)n3cccc32)cc1 | 100% | 100% | 100% | 99.8% | 100% | 100% | 100% | 100% | 99.7% | 100% | 99.8% | Active | Active | Active | 99.7% | Active | Active | 100% | 99.7% | 99.7% | Drug uptake [33]: Active; CC50 [34]: ≥ 8 µg/mL; inhibition of growth at 16 µg/mL (Candida albicans [23]): 100%; survival [24]: 93%; CC50 [25]: ≥ 256 µg/mL; inhibition of growth at 4 µg/mL (Candida albicans [26]): 100%; inhibition of growth at 0.25 µg/mL (Candida albicans [27]): 100%; Activity (Candida albicans [28]): Active; Activity (Candida albicans [35]): 61.47%; MFC (Candida albicans [29]): ≥ 16 µg/mL; inhibition of growth at 2 µg/mL (Candida albicans [30]): 100%; inhibition of growth at 16 µg/mL (Candida albicans [31]): 100% |
